The source of these data is the NIST ThermoML archive (doi:10.1021/acs.jced.8b00537).

Numbers after ± are expanded uncertainties.

As a reminder, the speed of sound is the propagation velocity of pressure waves in the medium. One may read the mass density as the mass of a sample divided by its volume. Usually viscosity stands for the resistance of a fluid to flow.

For one series the following is noted: 278.15 K; 100 kPa; Liquid; Frequency=3 MHz; Single path-length method.
As to `C=CCn1cc[n+](C)c1.O=S(=O)([N-]S(=O)(=O)C(F)(F)F)C(F)(F)F`, the speed of sound is recorded as 1286.6 ± 6.2 m/s.
On the same count and under the same terms, for `CCCC[N+]1(C)CCCC1.O=S(=O)([N-]S(=O)(=O)C(F)(F)F)C(F)(F)F` the value was 1316.3 ± 6.3 m/s; for `CCCO` [propan-1-ol], 1276 ± 6 m/s; for `CC[S+](CC)CC.O=S(=O)([N-]S(=O)(=O)C(F)(F)F)C(F)(F)F` [triethylsulfonium bis((trifluoromethyl)sulfonyl)imide], 1284.8 ± 6.1 m/s.

The series is the same for the next values; noted with them: 278.15 K; 100 kPa; Liquid; Vibrating tube method.
Consider `C=CCn1cc[n+](C)c1.O=S(=O)([N-]S(=O)(=O)C(F)(F)F)C(F)(F)F`, for which the mass density is reported as 1520.13 ± 3.2 kg/m3.
On the same count and under the same terms, for `CCCC[N+]1(C)CCCC1.O=S(=O)([N-]S(=O)(=O)C(F)(F)F)C(F)(F)F` the value was 1412.33 ± 3.3 kg/m3.
Same read-out and setting: for `CCCO` [propan-1-ol] the value was 815.52 ± 1.6 kg/m3; for `CC[S+](CC)CC.O=S(=O)([N-]S(=O)(=O)C(F)(F)F)C(F)(F)F` [triethylsulfonium bis((trifluoromethyl)sulfonyl)imide], 1479.52 ± 3 kg/m3.

Still in this series, the particulars now being: 283.15 K; 100 kPa; Liquid; Frequency=3 MHz; Single path-length method.
For `C=CCn1cc[n+](C)c1.O=S(=O)([N-]S(=O)(=O)C(F)(F)F)C(F)(F)F`, the speed of sound turned out to be 1274.9 ± 6.2 m/s.
For the compound `CCCC[N+]1(C)CCCC1.O=S(=O)([N-]S(=O)(=O)C(F)(F)F)C(F)(F)F`, the speed of sound amounted to 1304.4 ± 6.3 m/s.
Take `CCCO` [propan-1-ol]: the speed of sound was found to be 1258.7 ± 6 m/s.
Same read-out and setting: next, `CC[S+](CC)CC.O=S(=O)([N-]S(=O)(=O)C(F)(F)F)C(F)(F)F` [triethylsulfonium bis((trifluoromethyl)sulfonyl)imide]: 1274.1 ± 6.1 m/s.

Still in this series, the particulars now being: 283.15 K; 100 kPa; Liquid; Vibrating tube method.
For `C=CCn1cc[n+](C)c1.O=S(=O)([N-]S(=O)(=O)C(F)(F)F)C(F)(F)F`, the mass density amounted to 1514.97 ± 3.2 kg/m3.
The same measure, in the same setting: next, `CCCC[N+]1(C)CCCC1.O=S(=O)([N-]S(=O)(=O)C(F)(F)F)C(F)(F)F`: 1407.79 ± 3.2 kg/m3.
Still for that read-out and setting: for `CCCO` [propan-1-ol] the value was 811.6 ± 1.6 kg/m3; for `CC[S+](CC)CC.O=S(=O)([N-]S(=O)(=O)C(F)(F)F)C(F)(F)F` [triethylsulfonium bis((trifluoromethyl)sulfonyl)imide], 1474.62 ± 3 kg/m3.

The same series, now with this note: 288.15 K; 100 kPa; Liquid; Frequency=3 MHz; Single path-length method.
Regarding `C=CCn1cc[n+](C)c1.O=S(=O)([N-]S(=O)(=O)C(F)(F)F)C(F)(F)F`, the speed of sound is 1263.1 ± 6.2 m/s.
With `CCCC[N+]1(C)CCCC1.O=S(=O)([N-]S(=O)(=O)C(F)(F)F)C(F)(F)F`, the speed of sound is given as 1292.5 ± 6.3 m/s.
Take `CCCO` [propan-1-ol]: the speed of sound came to 1241.1 ± 6 m/s.
For `CC[S+](CC)CC.O=S(=O)([N-]S(=O)(=O)C(F)(F)F)C(F)(F)F` [triethylsulfonium bis((trifluoromethyl)sulfonyl)imide], the speed of sound is recorded as 1263.3 ± 6.1 m/s.

The series is the same for the next values; noted with them: 288.15 K; 100 kPa; Liquid; Vibrating tube method.
For `C=CCn1cc[n+](C)c1.O=S(=O)([N-]S(=O)(=O)C(F)(F)F)C(F)(F)F`, the mass density came out at 1509.81 ± 3.2 kg/m3.
For `CCCC[N+]1(C)CCCC1.O=S(=O)([N-]S(=O)(=O)C(F)(F)F)C(F)(F)F`, the mass density came to 1403.28 ± 3.2 kg/m3.
`CCCO` [propan-1-ol]: the mass density turned out to be 807.63 ± 1.6 kg/m3.
The same measure, in the same setting: next, `CC[S+](CC)CC.O=S(=O)([N-]S(=O)(=O)C(F)(F)F)C(F)(F)F` [triethylsulfonium bis((trifluoromethyl)sulfonyl)imide]: 1469.71 ± 3 kg/m3.

The same series, now with this note: 293.15 K; 100 kPa; Liquid; Capillary tube (Ostwald / Ubbelohde) method.
As for `C=CCn1cc[n+](C)c1.O=S(=O)([N-]S(=O)(=O)C(F)(F)F)C(F)(F)F`, the viscosity stood at 41.83 ± 3.4 mPa·s.
With `CCCC[N+]1(C)CCCC1.O=S(=O)([N-]S(=O)(=O)C(F)(F)F)C(F)(F)F`, the viscosity stood at 97.14 ± 7.9 mPa·s.
Consider `O=S(=O)([N-]S(=O)(=O)C(F)(F)F)C(F)(F)F.On1cc[n+](O)c1` [1,3-dihydroxyimidazolium bis(trifluoromethylsulfonyl)imide], for which the viscosity amounted to 238.6 ± 20 mPa·s.
The same measure, in the same setting: next, `CCCO` [propan-1-ol]: 2.14 ± 0.17 mPa·s.
Same read-out and setting: next, `CC[S+](CC)CC.O=S(=O)([N-]S(=O)(=O)C(F)(F)F)C(F)(F)F` [triethylsulfonium bis((trifluoromethyl)sulfonyl)imide]: 39.64 ± 3.2 mPa·s.

Staying with this series, now noted: 293.15 K; 100 kPa; Liquid; Frequency=3 MHz; Single path-length method.
`C=CCn1cc[n+](C)c1.O=S(=O)([N-]S(=O)(=O)C(F)(F)F)C(F)(F)F`: the speed of sound came to 1251.6 ± 6.2 m/s.
On the same count and under the same terms, for `CCCC[N+]1(C)CCCC1.O=S(=O)([N-]S(=O)(=O)C(F)(F)F)C(F)(F)F` the value was 1280.8 ± 6.3 m/s; for `O=S(=O)([N-]S(=O)(=O)C(F)(F)F)C(F)(F)F.On1cc[n+](O)c1` [1,3-dihydroxyimidazolium bis(trifluoromethylsulfonyl)imide], 1208.2 ± 6.3 m/s.
The same measure, in the same setting: for `CCCO` [propan-1-ol] the value was 1223.8 ± 6 m/s.
Same read-out and setting: next, `CC[S+](CC)CC.O=S(=O)([N-]S(=O)(=O)C(F)(F)F)C(F)(F)F` [triethylsulfonium bis((trifluoromethyl)sulfonyl)imide]: 1252.9 ± 6.1 m/s.

Still in this series, the particulars now being: 293.15 K; 100 kPa; Liquid; Vibrating tube method.
As to `C=CCn1cc[n+](C)c1.O=S(=O)([N-]S(=O)(=O)C(F)(F)F)C(F)(F)F`, the mass density worked out at 1504.69 ± 3.2 kg/m3.
As to `CCCC[N+]1(C)CCCC1.O=S(=O)([N-]S(=O)(=O)C(F)(F)F)C(F)(F)F`, the mass density came out at 1398.78 ± 3.2 kg/m3.
As for `O=S(=O)([N-]S(=O)(=O)C(F)(F)F)C(F)(F)F.On1cc[n+](O)c1` [1,3-dihydroxyimidazolium bis(trifluoromethylsulfonyl)imide], the mass density worked out at 1746.4 ± 4.3 kg/m3.
On the same count and under the same terms, next, `CCCO` [propan-1-ol]: 803.65 ± 1.6 kg/m3; `CC[S+](CC)CC.O=S(=O)([N-]S(=O)(=O)C(F)(F)F)C(F)(F)F` [triethylsulfonium bis((trifluoromethyl)sulfonyl)imide]: 1464.83 ± 3 kg/m3.

The same series, now with this note: 298.15 K; 100 kPa; Liquid; Capillary tube (Ostwald / Ubbelohde) method.
Consider `CCCC[N+]1(C)CCCC1.O=S(=O)([N-]S(=O)(=O)C(F)(F)F)C(F)(F)F`, for which the viscosity is 76.54 ± 6.2 mPa·s.
On the same count and under the same terms, for `O=S(=O)([N-]S(=O)(=O)C(F)(F)F)C(F)(F)F.On1cc[n+](O)c1` [1,3-dihydroxyimidazolium bis(trifluoromethylsulfonyl)imide] the value was 171.83 ± 14 mPa·s.
For the compound `CCCO` [propan-1-ol], the viscosity came out at 1.897 ± 0.15 mPa·s.
On the same count and under the same terms, next, `CC[S+](CC)CC.O=S(=O)([N-]S(=O)(=O)C(F)(F)F)C(F)(F)F` [triethylsulfonium bis((trifluoromethyl)sulfonyl)imide]: 32.43 ± 2.6 mPa·s.

The series is the same for the next values; noted with them: 298.15 K; 100 kPa; Liquid; Frequency=3 MHz; Single path-length method.
Turning to `C=CCn1cc[n+](C)c1.O=S(=O)([N-]S(=O)(=O)C(F)(F)F)C(F)(F)F`, the speed of sound stood at 1240.2 ± 6.2 m/s.
Take `CCCC[N+]1(C)CCCC1.O=S(=O)([N-]S(=O)(=O)C(F)(F)F)C(F)(F)F`: the speed of sound is 1269.4 ± 6.3 m/s.
Same read-out and setting: next, `O=S(=O)([N-]S(=O)(=O)C(F)(F)F)C(F)(F)F.On1cc[n+](O)c1` [1,3-dihydroxyimidazolium bis(trifluoromethylsulfonyl)imide]: 1196.6 ± 6.3 m/s.
Same read-out and setting: for `CCCO` [propan-1-ol] the value was 1206.5 ± 6 m/s; for `CC[S+](CC)CC.O=S(=O)([N-]S(=O)(=O)C(F)(F)F)C(F)(F)F` [triethylsulfonium bis((trifluoromethyl)sulfonyl)imide], 1242.5 ± 6.1 m/s.

Still in this series, the particulars now being: 298.15 K; 100 kPa; Liquid; Vibrating tube method.
As for `CCCC[N+]1(C)CCCC1.O=S(=O)([N-]S(=O)(=O)C(F)(F)F)C(F)(F)F`, the mass density turned out to be 1394.32 ± 3.2 kg/m3.
The same measure, in the same setting: next, `O=S(=O)([N-]S(=O)(=O)C(F)(F)F)C(F)(F)F.On1cc[n+](O)c1` [1,3-dihydroxyimidazolium bis(trifluoromethylsulfonyl)imide]: 1740.44 ± 4.3 kg/m3; `CCCO` [propan-1-ol]: 799.65 ± 1.6 kg/m3.
The same measure, in the same setting: for `CC[S+](CC)CC.O=S(=O)([N-]S(=O)(=O)C(F)(F)F)C(F)(F)F` [triethylsulfonium bis((trifluoromethyl)sulfonyl)imide] the value was 1459.98 ± 3 kg/m3.

The same series, now with this note: 303.15 K; 100 kPa; Liquid; Capillary tube (Ostwald / Ubbelohde) method.
As for `C=CCn1cc[n+](C)c1.O=S(=O)([N-]S(=O)(=O)C(F)(F)F)C(F)(F)F`, the viscosity is 28.51 ± 2.3 mPa·s.
Same read-out and setting: next, `CCCC[N+]1(C)CCCC1.O=S(=O)([N-]S(=O)(=O)C(F)(F)F)C(F)(F)F`: 61.31 ± 4.9 mPa·s; `O=S(=O)([N-]S(=O)(=O)C(F)(F)F)C(F)(F)F.On1cc[n+](O)c1` [1,3-dihydroxyimidazolium bis(trifluoromethylsulfonyl)imide]: 127.52 ± 10 mPa·s.
As to `CCCO` [propan-1-ol], the viscosity came out at 1.688 ± 0.14 mPa·s.
Consider `CC[S+](CC)CC.O=S(=O)([N-]S(=O)(=O)C(F)(F)F)C(F)(F)F` [triethylsulfonium bis((trifluoromethyl)sulfonyl)imide], for which the viscosity is 26.92 ± 2.2 mPa·s.

The series is the same for the next values; noted with them: 303.15 K; 100 kPa; Liquid; Frequency=3 MHz; Single path-length method.
With `C=CCn1cc[n+](C)c1.O=S(=O)([N-]S(=O)(=O)C(F)(F)F)C(F)(F)F`, the speed of sound stood at 1228.9 ± 6.2 m/s.
On the same count and under the same terms, next, `CCCC[N+]1(C)CCCC1.O=S(=O)([N-]S(=O)(=O)C(F)(F)F)C(F)(F)F`: 1258.2 ± 6.3 m/s; `O=S(=O)([N-]S(=O)(=O)C(F)(F)F)C(F)(F)F.On1cc[n+](O)c1` [1,3-dihydroxyimidazolium bis(trifluoromethylsulfonyl)imide]: 1185.2 ± 6.3 m/s; `CCCO` [propan-1-ol]: 1189.4 ± 6 m/s.
On the same count and under the same terms, next, `CC[S+](CC)CC.O=S(=O)([N-]S(=O)(=O)C(F)(F)F)C(F)(F)F` [triethylsulfonium bis((trifluoromethyl)sulfonyl)imide]: 1232.4 ± 6.1 m/s.

The series is the same for the next values; noted with them: 303.15 K; 100 kPa; Liquid; Vibrating tube method.
With `C=CCn1cc[n+](C)c1.O=S(=O)([N-]S(=O)(=O)C(F)(F)F)C(F)(F)F`, the mass density is 1494.52 ± 3.2 kg/m3.
Regarding `CCCC[N+]1(C)CCCC1.O=S(=O)([N-]S(=O)(=O)C(F)(F)F)C(F)(F)F`, the mass density is listed as 1389.87 ± 3.2 kg/m3.
The same measure, in the same setting: for `O=S(=O)([N-]S(=O)(=O)C(F)(F)F)C(F)(F)F.On1cc[n+](O)c1` [1,3-dihydroxyimidazolium bis(trifluoromethylsulfonyl)imide] the value was 1734.52 ± 4.3 kg/m3; for `CCCO` [propan-1-ol], 795.61 ± 1.6 kg/m3; for `CC[S+](CC)CC.O=S(=O)([N-]S(=O)(=O)C(F)(F)F)C(F)(F)F` [triethylsulfonium bis((trifluoromethyl)sulfonyl)imide], 1455.14 ± 3 kg/m3.

Still in this series, the particulars now being: 308.15 K; 100 kPa; Liquid; Capillary tube (Ostwald / Ubbelohde) method.
As to `C=CCn1cc[n+](C)c1.O=S(=O)([N-]S(=O)(=O)C(F)(F)F)C(F)(F)F`, the viscosity turned out to be 23.96 ± 1.9 mPa·s.
On the same count and under the same terms, for `CCCC[N+]1(C)CCCC1.O=S(=O)([N-]S(=O)(=O)C(F)(F)F)C(F)(F)F` the value was 49.84 ± 4 mPa·s.
Regarding `O=S(=O)([N-]S(=O)(=O)C(F)(F)F)C(F)(F)F.On1cc[n+](O)c1` [1,3-dihydroxyimidazolium bis(trifluoromethylsulfonyl)imide], the viscosity turned out to be 96.92 ± 7.9 mPa·s.
Still for that read-out and setting: next, `CCCO` [propan-1-ol]: 1.506 ± 0.12 mPa·s.
